Measurements: patent US12661355B2, “Compounds and methods for inducing UCP1 expression” (The Regents of the University of California, priority 2020, dated 2026)

How the values were obtained:
[1] = target: T1, cGMP-dependent kinase 1 (PKG-1) (Mus musculus, UniProt P0C605); assay: CETSA in brown adipocytes, PKG-1; type: binding; settings: 10 μM for 8 h
T1 construct: endogenous in cells; host or cells: immortalized mouse brown adipocytes
Description: CETSA assays were performed according to known methods. Briefly, differentiated brown adipocytes (one 10 cm dish per treatment) were treated with vehicle or compounds, trypsinized, counted, and re-suspended in approximately 450 μl PBS containing protease inhibitors (volumes were adjusted to have the same number of cells in each treatment). For each sample, 18 μl was distributed into each of 7 PCR tubes. Samples were heated using a thermocycler with a temperature gradient (iCycler, Biorad) for 3 min, followed by 3 min at room temperature, and then snap-frozen in liquid N2. After two freeze-thaw cycles, samples were centrifuged at 20,000 g for 15 min at 4° C., and the supernatants were transferred to another set of tubes. Proteins were analyzed by immunoblotting.
The potential interaction of Z160 with PKA subunits and AKAPs was assessed first by identifying which PKA subunits and AKAP isoforms are normally present in BAT. […] To perform the CETSA assays, cultured brown adipocytes were incubated with 10 μM Z160 for 8 h, after which the thermal shift was analyzed by Western blot.

AKAP1 = target: T2, AKAP1 (Mus musculus, UniProt O08715); assay: Western blot of mitochondria-associated proteins, AKAP1; type: cell-based; settings: brown adipocytes, 10 μM, after 6-8 h
T2 construct: from tissue; host or cells: mouse brown adipose tissue (BAT) lysate; also mouse brown adipocyte extracts
T2 sequence (O08715 30-857): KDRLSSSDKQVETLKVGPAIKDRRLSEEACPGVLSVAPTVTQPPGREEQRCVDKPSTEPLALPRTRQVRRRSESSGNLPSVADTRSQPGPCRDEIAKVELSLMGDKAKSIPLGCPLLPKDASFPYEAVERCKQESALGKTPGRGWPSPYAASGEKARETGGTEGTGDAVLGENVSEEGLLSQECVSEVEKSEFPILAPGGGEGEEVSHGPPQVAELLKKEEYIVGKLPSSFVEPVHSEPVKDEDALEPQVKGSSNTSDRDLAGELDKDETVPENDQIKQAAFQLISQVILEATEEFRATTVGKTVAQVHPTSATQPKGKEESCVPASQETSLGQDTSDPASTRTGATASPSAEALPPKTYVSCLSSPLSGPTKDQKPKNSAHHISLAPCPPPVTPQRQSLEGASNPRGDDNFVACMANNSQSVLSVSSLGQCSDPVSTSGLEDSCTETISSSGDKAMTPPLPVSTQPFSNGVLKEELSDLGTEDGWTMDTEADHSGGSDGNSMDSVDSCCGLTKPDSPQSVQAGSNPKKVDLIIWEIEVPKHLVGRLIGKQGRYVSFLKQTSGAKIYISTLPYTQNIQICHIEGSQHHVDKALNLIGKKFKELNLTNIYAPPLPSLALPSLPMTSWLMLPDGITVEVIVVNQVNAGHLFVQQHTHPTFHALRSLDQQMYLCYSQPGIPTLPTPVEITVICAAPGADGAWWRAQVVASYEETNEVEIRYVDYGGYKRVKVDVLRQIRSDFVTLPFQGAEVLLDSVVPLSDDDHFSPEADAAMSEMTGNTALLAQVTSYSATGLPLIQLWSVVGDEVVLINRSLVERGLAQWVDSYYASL
Description: Cells and tissues were lysed in 10 mM Tris pH 7.5, 10 mM NaCl, 1 mM EDTA and 0.5% Triton X-100, supplemented with complete mini EDTA-free protease (Roche Diagnostics) and phosphatase (Cocktail 2 and 3, Sigma) inhibitors, followed by 10 second sonication. For analysis of mitochondrial proteins, mitochondria were isolated from cells by dual centrifugation, as described. Protein lysates were separated by SDS-PAGE and transferred to a nitrocellulose membrane. Transfer was confirmed by Ponceau staining (P7170, Sigma). After blocking in 5% milk, 0.1% Tween-20 in Tris-buffered saline (TBS), primary antibody was incubated overnight at 4° C. in 5% bovine serum albumin and 0.1% Tween-20 in TBS. Primary antibodies against ACTB (GTX109639, GeneTex), AKAP1 (5203, Cell Signaling), AKAP6 (07-087, Millipore), Cytochrome c (136F3, Cell Signaling), electron transport chain protein complexes (Total OXPHOS rodent WB antibody cocktail ab110413, Abcam), GAPDH (GTX100118, Genetex), active p38 MAPK (V1211, Promega), total p38 MAPK (8690, Cell Signaling), PGC1α (AB3242, Millipore), phospho-(Ser/Thr) PKA substrate (9621, Cell Signaling), PKA C-α (4782, Cell Signaling), PKA RII-β (ab75993, Abcam), and UCP1 (662045, Calbiochem) were used at 1:2000. […] Quantification using representative bands from the Ponceau staining was performed with ImageJ. […]

T1 sequence (P0C605 whole entry): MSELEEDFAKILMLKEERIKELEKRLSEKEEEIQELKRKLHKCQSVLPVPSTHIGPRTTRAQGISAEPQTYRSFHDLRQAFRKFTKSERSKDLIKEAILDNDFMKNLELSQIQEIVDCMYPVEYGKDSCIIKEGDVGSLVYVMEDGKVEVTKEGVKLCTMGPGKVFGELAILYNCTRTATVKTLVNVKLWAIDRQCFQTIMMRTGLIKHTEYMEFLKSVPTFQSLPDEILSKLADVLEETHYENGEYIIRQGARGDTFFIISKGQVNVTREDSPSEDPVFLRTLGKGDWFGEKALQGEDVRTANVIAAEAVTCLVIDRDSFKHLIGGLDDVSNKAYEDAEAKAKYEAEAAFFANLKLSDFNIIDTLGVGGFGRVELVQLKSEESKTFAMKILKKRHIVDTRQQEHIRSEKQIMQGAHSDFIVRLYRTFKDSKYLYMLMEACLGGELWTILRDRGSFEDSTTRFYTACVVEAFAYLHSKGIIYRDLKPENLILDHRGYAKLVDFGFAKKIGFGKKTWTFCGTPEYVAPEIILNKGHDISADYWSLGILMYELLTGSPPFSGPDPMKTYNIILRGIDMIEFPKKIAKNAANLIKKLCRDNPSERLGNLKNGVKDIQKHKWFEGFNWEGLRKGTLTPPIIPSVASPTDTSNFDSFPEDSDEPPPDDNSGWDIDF

COc1ccc(NC(=O)CSc2nc3ccccc3c(=O)[nH]2)c(OC)c1 [Z160]
heat stability of PKG-1 [1]: did not influence the heat stability
AKAP1 protein levels in the mitochondrial fraction (AKAP1): increased
